Source: patent US9422285B2, “Substituted pyrazolo[1,5-A]-pyridine-3-carboxamides and use thereof” (Bayer Pharma Aktiengesellschaft, priority 2014, dated 2016)
Counter-ions that a name gives are not always drawn.

Target: T1, recombinant guanylate cyclase reporter cell line (Rattus norvegicus, UniProt P19686+P20595)
T1 construct: expressed in transfected cells
T1 sequence (P19686 1-690): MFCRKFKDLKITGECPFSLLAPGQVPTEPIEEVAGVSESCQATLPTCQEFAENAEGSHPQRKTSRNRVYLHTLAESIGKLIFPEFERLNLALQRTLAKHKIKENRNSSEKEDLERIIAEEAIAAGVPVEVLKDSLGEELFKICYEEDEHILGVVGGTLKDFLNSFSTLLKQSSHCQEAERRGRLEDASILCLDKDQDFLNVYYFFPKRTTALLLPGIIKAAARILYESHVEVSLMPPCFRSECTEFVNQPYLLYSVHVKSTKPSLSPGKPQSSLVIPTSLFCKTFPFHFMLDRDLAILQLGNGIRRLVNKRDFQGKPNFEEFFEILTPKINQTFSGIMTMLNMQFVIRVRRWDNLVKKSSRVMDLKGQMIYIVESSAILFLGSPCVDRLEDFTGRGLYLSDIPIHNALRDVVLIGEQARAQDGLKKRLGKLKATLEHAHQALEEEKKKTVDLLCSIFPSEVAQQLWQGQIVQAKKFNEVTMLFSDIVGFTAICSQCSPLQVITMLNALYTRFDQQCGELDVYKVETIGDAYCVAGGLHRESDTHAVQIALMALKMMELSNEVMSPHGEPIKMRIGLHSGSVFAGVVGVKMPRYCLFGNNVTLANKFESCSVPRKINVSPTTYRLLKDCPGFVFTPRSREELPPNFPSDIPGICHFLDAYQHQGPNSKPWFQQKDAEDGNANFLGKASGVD
T1 sequence (P20595 1-619): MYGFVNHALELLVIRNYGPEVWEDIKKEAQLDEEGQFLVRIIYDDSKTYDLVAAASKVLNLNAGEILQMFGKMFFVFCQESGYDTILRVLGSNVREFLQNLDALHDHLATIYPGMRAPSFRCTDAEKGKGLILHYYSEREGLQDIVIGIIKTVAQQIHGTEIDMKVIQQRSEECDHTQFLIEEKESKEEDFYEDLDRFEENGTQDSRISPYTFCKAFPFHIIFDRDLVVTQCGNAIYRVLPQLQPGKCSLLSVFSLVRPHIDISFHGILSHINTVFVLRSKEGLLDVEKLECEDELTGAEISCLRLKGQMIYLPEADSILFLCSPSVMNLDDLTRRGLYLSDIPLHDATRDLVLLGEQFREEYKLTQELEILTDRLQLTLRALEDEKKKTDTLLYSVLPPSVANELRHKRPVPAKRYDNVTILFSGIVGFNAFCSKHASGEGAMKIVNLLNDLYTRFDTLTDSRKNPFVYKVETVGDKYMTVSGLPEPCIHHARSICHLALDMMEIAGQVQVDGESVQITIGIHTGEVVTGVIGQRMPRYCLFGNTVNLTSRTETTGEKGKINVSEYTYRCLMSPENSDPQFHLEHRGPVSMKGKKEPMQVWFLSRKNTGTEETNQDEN
Experiment: Effect on a recombinant guanylate cyclase reporter cell line (B-2)
Type: cell-based
Conditions: in some cases mean values for individual determinations
Experimental: B-2. Effect on a Recombinant Guanylate Cyclase Reporter Cell Line
The cellular effect of the inventive compounds is determined using a recombinant guanylate cyclase reporter cell line, as described in F. Wunder et al., Anal. Biochem. 339, 104-112 (2005).
Representative MEC values (MEC=minimum effective concentration) for the inventive compounds are shown in the table below (in some cases as mean values for individual determinations): […]

Structure (SMILES) | MEC (minimum effective concentration) [µM]
Cc1cc(OCc2c(F)cccc2F)n2nc(C)c(C(=O)NNC(=O)CN3CCCC3=O)c2c1 [Example 175, 7-[(2,6-Difluorobenzyl)oxy]-2,5-dimethyl-N′-[(2-oxopyrrolidin-1-yl)acetyl]pyrazolo[1,5-a]pyridine-3-carbohydrazide trifluoroacetate] | 10
Cc1cc(OCc2c(F)cccc2F)n2nc(C)c(C(=O)NC(CN)c3cccc(Br)c3)c2c1 (racemic) [Example 126, rac-N-[2-Amino-1-(3-bromphenyl)ethyl]-7-[(2,6-difluorobenzyl)oxy]-2,5-dimethylpyrazolo[1,5-a]pyridine-3-carboxamide] | 1.0
Cc1cc(OCc2c(F)cccc2F)n2nc(C)c(C(=O)NC3CC(=O)Nc4ccccc43)c2c1 (racemic) [Example 76, rac-7-[(2,6-Difluorobenzyl)oxy]-2,5-dimethyl-N-(2-oxo-1,2,3,4-tetrahydroquinolin-4-yl)pyrazolo[1,5-a]pyridine-3-carboxamide trifluoroacetate] | 0.3
CC(=O)NCCNC(=O)c1c(C)nn2c(OCc3c(F)cccc3F)cc(C)cc12 [Example 96, N-(2-Acetamidoethyl)-7-[(2,6-difluorobenzyl)oxy]-2,5-dimethylpyrazolo[1,5-a]pyridine-3-carboxamide] | 10
Cc1cc(OCc2c(F)cccc2F)n2nc(C)c(C(=O)NC3CC(C)Nc4ccc(C(F)(F)F)nc43)c2c1 (single isomer, unassigned; ent-7) [Example 86, ent-7-[(2,6-Difluorobenzyl)oxy]-2,5-dimethyl-N-[2-methyl-6-(trifluoromethyl)-1,2,3,4-tetrahydro-1,5-naphthyridin-4-yl]pyrazolo[1,5-a]pyridine-3-carboxamide] | 3.0
Cc1cc(OCc2c(F)cccc2F)n2nc(C)c(C(=O)NC3CCCCNC3)c2c1 (racemic) [Example 127, rac-N-(Azepan-3-yl)-7-[(2,6-difluorobenzyl)oxy]-2,5-dimethylpyrazolo[1,5-a]pyridine-3-carboxamide] | 0.3
Cc1cc(OCc2c(F)cccc2F)n2nc(C)c(C(=O)NCC(C)(N)CCCF)c2c1 (single isomer, unassigned) [Example 44, ent-N-(2-Amino-5-fluoro-2-methylpentyl)-7-[(2,6-difluorobenzyl)oxy]-2,5-dimethylpyrazolo[1,5-a]pyridine-3-carboxamide] | 0.3
Cc1cc(OCc2c(F)cccc2F)n2nc(C)c(C(=O)NC34CCC(C(=O)O)(CC3)CC4)c2c1 [Example 153, 4-[({7-[(2,6-Difluorobenzyl)oxy]-2,5-dimethylpyrazolo[1,5-a]pyridin-3-yl}carbonyl)amino]bicyclo[2.2.2]octane-1-carboxylic Acid] | 3.0
Cc1cc(OCc2c(F)cccc2F)n2nc(C)c(C(=O)NCC(C)(N)CCF)c2c1 (single isomer, unassigned) [Example 50, ent-N-(2-Amino-4-fluoro-2-methylbutyl)-7-[(2,6-difluorobenzyl)oxy]-2,5-dimethylpyrazolo[1,5-a]pyridine-3-carboxamide] | 0.3
Cc1cc(OCc2c(F)ccc(F)c2F)n2nc(C)c(C(=O)Nc3c(C)nn(CCO)c3C)c2c1 [Example 11, N-[1-(2-Hydroxyethyl)-3,5-dimethyl-1H-pyrazol-4-yl]-2,5-dimethyl-7-[(2,3,6-trifluorobenzyl)oxy]pyrazolo[1,5-a]pyridine-3-carboxamide] | 1.0
Cc1cc(OCc2c(F)cccc2F)n2nc(C)c(C(=O)NC3c4cccc(F)c4OC3C)c2c1 (stereo not shown) [Example 111, 7-[(2,6-Difluorobenzyl)oxy]-N-(7-fluoro-2-methyl-2,3-dihydro-1-benzofur-3-yl)-2,5-dimethylpyrazolo[1,5-a]pyridine-3-carboxamide] | 1.0
Cc1ccc2c(c1)OC(C)(C)CC2NC(=O)c1c(C)nn2c(OCc3c(F)cccc3F)cc(C)cc12 (racemic) [Example 137, rac-7-[(2,6-Difluorobenzyl)oxy]-2,5-dimethyl-N-(2,2,7-trimethyl-3,4-dihydro-2H-chromen-4-yl)pyrazolo[1,5-a]pyridine-3-carboxamide] | 1.0
Cc1cc(OCc2c(F)ccc(F)c2F)n2nc(C)c(C(=O)Nc3cnn4ccccc34)c2c1 [Example 23, 2,5-Dimethyl-N-(pyrazolo[1,5-a]pyridin-3-yl)-7-[(2,3,6-trifluorobenzyl)oxy]pyrazolo[1,5-a]pyridine-3-carboxamide] | 0.3
Cc1cc(OCc2c(F)cccc2F)n2nc(C)c(C(=O)N[C@H]3CCNC3=O)c2c1 [Example 149, 7-[(2,6-Difluorobenzyl)oxy]-2,5-dimethyl-N-[(3S)-2-oxopyrrolidin-3-yl]pyrazolo[1,5-a]pyridine-3-carboxamide] | 1.0
Cc1cc(OCc2c(F)ccc(F)c2F)n2nc(C)c(C(=O)Nc3c(C)nn(Cc4ccc(F)cc4)c3C)c2c1 [Example 16, N-[1-(4-Fluorobenzyl)-3,5-dimethyl-1H-pyrazol-4-yl]-2,5-dimethyl-7-[(2,3,6-trifluorobenzyl)oxy]pyrazolo[1,5-a]pyridine-3-carboxamide] | 0.3
Cc1cc(OCc2c(F)cccc2F)n2nc(C)c(C(=O)NC(C#N)c3ccc(Cl)cc3)c2c1 (racemic) [Example 134, rac-N-[(4-Chlorophenyl)(cyano)methyl]-7-[(2,6-difluorobenzyl)oxy]-2,5-dimethylpyrazolo[1,5-a]pyridine-3-carboxamide] | 0.3
Cc1cc(OCc2c(F)cccc2F)n2nc(C3CC3)c(C(=O)NCC(C)(N)CC(F)F)c2c1 (single isomer, unassigned) [Example 57, ent-N-(2-Amino-4,4-difluoro-2-methylbutyl)-2-cyclopropyl-7-[(2,6-difluorobenzyl)oxy]-5-methylpyrazolo[1,5-a]pyridine-3-carboxamide] | 0.3
Cc1cc(OCc2c(F)cccc2F)n2nc(C)c(C(=O)NCCCS(=O)(=O)NC3CC3)c2c1 [Example 151, N-[3-(Cyclopropylsulphamoyl)propyl]-7-[(2,6-difluorobenzyl)oxy]-2,5-dimethylpyrazolo[1,5-a]pyridine-3-carboxamide] | 3.0
Cc1cc(OCc2c(F)cccc2F)n2nc(C)c(C(=O)NCC(C)(N)CCOCc3ccccc3)c2c1 (racemic) [Example 78, rac-N-[2-Amino-4-(benzyloxy)-2-methylbutyl]-7-[(2,6-difluorobenzyl)oxy]-2,5-dimethylpyrazolo[1,5-a]pyridine-3-carboxamide] | 1.0
Cc1cc(OCc2c(F)cccc2F)n2nc(C)c(C(=O)NCC(N)c3ccc4c(c3)OCCO4)c2c1 (racemic) [Example 110, rac-N-[2-Amino-2-(2,3-dihydro-1,4-benzodioxin-6-yl)ethyl]-7-[(2,6-difluorobenzyl)oxy]-2,5-dimethylpyrazolo[1,5-a]pyridine-3-carboxamide] | 3.0
Cc1cc(OCc2c(F)cccc2F)n2nc(C)c(C(=O)NCC3CNC(=O)O3)c2c1 (racemic) [Example 100, rac-7-[(2,6-Difluorobenzyl)oxy]-2,5-dimethyl-N-[(2-oxo-1,3-oxazolidin-5-yl)methyl]pyrazolo[1,5-a]pyridine-3-carboxamide] | 10
Cc1cc(OCc2c(F)cccc2F)n2nc(C)c(C(=O)NCC3CCc4ccccc4N3)c2c1 (racemic) [Example 82, rac-7-[(2,6-Difluorobenzyl)oxy]-2,5-dimethyl-N-(1,2,3,4-tetrahydroquinolin-2-ylmethyl)pyrazolo[1,5-a]pyridine-3-carboxamide] | 1.0
